Literature values as cited in US7115281B2, “Processes for the preparation of oral dosage formulations of modafinil” (Ranbaxy Laboratories Limited, priority 2002, dated 2006).

Tests used:
[1] = not given; remark: listed apart in the source

SMILES: NC(=O)C[S+]([O-])C(c1ccccc1)c1ccccc1 (centres unmarked) [modafinil]
- Stability at higher temperatures: unstable
- Solubility in water [1]: less than 1 mg/ml
